These results are taken from paper PMC13236579, “Synthesis of aryl-fused bicyclo[3.1.1]heptanes and validation as naphthyl bioisosteres” (Nature Chemistry, 2026).

Data set [1] is described as follows: Metabolic stability in mouse liver microsomes (MLM) with or without ANF. Particulars: for half-life at 1 μM / microsomal CLint at 1 μM: CD-1, mouse, liver microsomes, 1 μM compound; for microsomal CLint at 1 μM: read-out: CLint(mic). Format: in vitro ADME. The protocol: Finally, we subjected the most promising derivatives to metabolic stability studies in mouse liver microsomes (MLMs), a validated model for understanding phase I metabolism of drugs (Table 1). To investigate whether the analogues would be susceptible to CYPs metabolism, we repeated these tests in the presence of 3 μM α-naphthoflavone (ANF). ANF is a well-known inhibitor of CYP1A enzymes, which is responsible for the CYP oxidative metabolism of naphthalene ring in ezutromid. […] These findings support the strategy that BCHep substitution mitigates the metabolic liabilities associated with ezutromid, by both preserving metabolic stability and avoiding CYP1A-mediated metabolism. [table] page 148: Fig.S178. […] Data have been obtained by RT-qPCR, and analysed using the 2-∆∆Ct method. Values obtained have been normalized to control (DMSO 1%), and presented as Mean + SEM (n=4). Statistical analysis was performed using the Ordinary One-way ANOVA followed by Dunnett’s multiple comparisons test against Vehicle Control: **: p < 0.005; ****: p < 0.0001 (grey). Metabolic stability Metabolic stability of compounds was assessed in Mouse Liver Microsomes (MLM) by WuxiAppTech (Shangai, China). Briefly, ACN solutions of test compounds ( 50a-c, i.a concentration 1μM) were dispensed in duplicate in a 96-well plate using an Apricot automation workstation. A solution of MLM (CD-1 Mouse, RILD, Cat. number LM-XS-02M) in PBS, with or without ANF, was added to each compound and plates were incubated at 37°C for 10 minutes. Reactions were then initiated by adding NADPH (i.a. 1mM, 0.5mM MgCl2) an d […] performed by adding stop solution before activating the reaction). NADPH -independent metabolism was assessed for each condition by replacing NADPH solution with PBS b uffer. Phenacetine, diclofenac and propafenone were used as controls. After proper incubation time, reaction was stopped by addition of ice -cold ACN and the plates were sealed, shaken and centrifuged at 1800 x g and 4°C for 20 minutes. The supernatant was then subjected to LC/MS-MS analysis for residual drug quantitation using 250 nM tolbutamide and 250 nM labetalol as internal standards. Half-life (t1/2) and CLint (Intrinsic clearance) were calculated using standard pharmacokinetic calculations based on the decay of drug concentration over time. […] The test compound 50b at 10 µM was incubated with liver microsomes in the presence of NADPH at […] The positive control, 7-ethoxycoumarin (7-EC) at 10 µM, was run concurrently to 147 (1 picture or pasted object on this page, not shown here)

The target of data set [2] is T1, aryl hydrocarbon receptor (AhR) (Homo sapiens, UniProt P35869).
T1 construct: Human hepatocellular carcinoma (HepG2) cell lines were acquired from Abcam; host or cells: HepG2 (human hepatocellular carcinoma)
T1 sequence (P35869 11-848): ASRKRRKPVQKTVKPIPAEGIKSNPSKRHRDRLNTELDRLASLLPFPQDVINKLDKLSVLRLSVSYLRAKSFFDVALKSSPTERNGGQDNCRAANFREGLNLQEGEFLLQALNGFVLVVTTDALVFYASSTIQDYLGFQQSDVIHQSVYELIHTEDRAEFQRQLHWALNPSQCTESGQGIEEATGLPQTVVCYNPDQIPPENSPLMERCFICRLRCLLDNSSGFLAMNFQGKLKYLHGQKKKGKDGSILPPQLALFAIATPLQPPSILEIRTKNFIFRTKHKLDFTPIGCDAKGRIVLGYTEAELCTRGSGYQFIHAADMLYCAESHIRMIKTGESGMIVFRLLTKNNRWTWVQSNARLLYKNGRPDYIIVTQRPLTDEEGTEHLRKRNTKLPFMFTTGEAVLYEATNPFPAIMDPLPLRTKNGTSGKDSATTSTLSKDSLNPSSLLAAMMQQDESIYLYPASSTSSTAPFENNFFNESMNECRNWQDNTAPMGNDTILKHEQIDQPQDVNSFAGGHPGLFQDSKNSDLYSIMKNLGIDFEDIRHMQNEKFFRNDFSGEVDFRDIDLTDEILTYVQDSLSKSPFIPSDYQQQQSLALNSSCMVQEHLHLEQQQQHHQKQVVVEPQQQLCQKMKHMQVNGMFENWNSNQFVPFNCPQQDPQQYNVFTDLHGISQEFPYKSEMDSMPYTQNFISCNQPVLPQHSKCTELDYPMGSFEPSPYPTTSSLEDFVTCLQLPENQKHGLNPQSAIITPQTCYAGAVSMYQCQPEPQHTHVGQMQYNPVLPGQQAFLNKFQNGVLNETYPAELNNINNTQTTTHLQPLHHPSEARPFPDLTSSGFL
The data set is described as follows: AhR antagonism: CYP1A1 mRNA levels in HepG2 cells by RT-qPCR. Format: cell-based. Particulars: HepG2, 4 h incubation, 2^-ΔΔCt, normalized to DMSO control. The source says:
To this aim, we decided to measure the activity of ezutromid and the analogues against ezutromid's primary target, which has recently been identified as the aryl hydrocarbon receptor (AhR)[40]. This nuclear transcription factor plays a pivotal role in the metabolism of exogenous small molecules by targeting nuclear DNA to upregulate the expression of several isoforms of CYP enzymes responsible for the phase I metabolism of drugs, such as CYP1A isoforms (Fig. 5a). Therefore, AhR inhibition can be monitored by measuring the relative expression of these genes, with lower CYP1A1 mRNA levels being proportional to AhR antagonism.  Fig. 5 AhR antagonism and biological evaluation of BCHep analogues. a, A schematic representation of how ezutromid antagonizes AhR preventing its translocation into the nuclei and its subsequent upregulation of CYP1A1 enzyme. The inhibition of AhR can therefore be evaluated as a decrease in CYP1A1 expression. b, The evaluation of 50a-c as AhR antagonists compared with ezutromid. Data have been obtained by quantitative RT-qPCR and analysed using the 2^-ΔΔCt method. Values obtained have been normalized to control (DMSO 1%) and presented as mean + s.e.m. The IC50 values were determined from biological triplicates, except for compounds 50c and ezutromid, which were measured from duplicate experimental replicates.
In general terms: In qPCR the cycle at which signal appears reflects the starting amount.

A further data set deals with utrophin. On the set-up: method as in doi:10.1080/21678707.2018.1438261. The settings on record: patients with DMD, cited from earlier work.
Data set [3] in a line: Kinetic solubility assay in phosphate buffer. The class given is physicochemical. Particulars: aqueous buffer, kinetic from dmso stock, 50 mM PB (pH 7.4), room temperature. The protocol: A 50 mM phosphate buffer (pH 7.4) was prepared by mixing 50 mM Na₂HPO₄ (3.549 g in 500 mL H₂O, pH ≈ 9.4) and 50 mM NaH ₂PO₄ (3.000 g in 500 mL H₂O, pH ≈ 4.5). To obtain the working buffer, 15 mL of Na₂HPO₄ solution was transferred into a 50 mL tube and adjusted to pH 7.4 ± 0.05 with 50 mM NaH₂PO₄. For solubility determination, 10 µL of compound stock solution was added to each well of a 96 -well plate, followed by 490 µL of buffer. Samples were vortexed for 2 min, shaken at 70 x g for 24 h at room temperature, and then centrifuged at 25 °C for 10 min (1800 x g). Supernatants were filtered through MultiScreen® Solvinert plates (Millipore/Merck) by centrifugation (≥ 5 min) and collected into a fresh 96 -well plate. Filtrate concentrations were quantified by LC-UV using an ACQUITY UPLC BEH C18 (1.7 µm, 50 mm) column with Mobile Phase A (0.1% TFA, 5 mM NH ₄OAc in H₂O/ACN 95:5 v/v) and Mobile Phase B (0.1% TFA, 5 mM NH ₄OAc in H₂O/ACN 5:95 v/v). […]
Compound ID Batch Media Kinetic Solubility Kinetic Solubility

Data set [4] can be described thus: MetID of 50b in liver microsomes (LC-UV-MS). The class given is in vitro ADME, human. The protocol: Fig.S178. Evaluation of 50a-c as AhR antagonists compared to Ezutromid. Data have been obtained by RT-qPCR, and analysed using the 2-∆∆Ct method. Values obtained have been normalized to control (DMSO 1%), and presented as Mean + SEM (n=4). Statistical analysis was performed using the Ordinary One-way ANOVA followed by Dunnett’s multiple comparisons test against Vehicle Control: **: p < 0.005; ****: p < 0.0001 (grey).
Metabolic stability of compounds was assessed in Mouse Liver Microsomes (MLM) by WuxiAppTech (Shangai, China). Briefly, ACN solutions of test compounds ( 50a-c, i.a concentration 1μM) were dispensed in duplicate in a 96-well plate using an Apricot automation workstation. […] NADPH -independent metabolism was assessed for each condition by replacing NADPH solution with PBS b uffer. […]
After proper incubation time, reaction was stopped by addition of ice -cold ACN and the plates were sealed, shaken and centrifuged at 1800 x g and 4°C for 20 minutes. The supernatant was then subjected to LC/MS-MS analysis for residual drug quantitation using 250 nM tolbutamide and 250 nM labetalol as internal standards. Half-life (t1/2) and CLint (Intrinsic clearance) were calculated using standard pharmacokinetic calculations based on the decay of drug concentration over time. […]
incubation system was reliable for metabolic study. After incubation, the samples were analyzed by LC - UV-MS. […]
(In general: Liver microsomes are a subcellular fraction often used to study metabolism.)

Where [5] appears, read: with α-naphthoflavone (ANF, CYP1A inhibitor) 3 μM, with 3 μM ANF (CYP1A inhibitor).
The mark [6] stands for this setting: with α-naphthoflavone (ANF, CYP1A inhibitor) 3 μM, with 3 μM ANF.

Values joined by “and” are separate entries in the source; they are usually repeats but may differ in a detail not shown here. Identical values can stand only once. Like-named read-outs stand apart in the source and are kept apart here.

What is called half-life is the time needed for the level to fall by half in the phase considered. Lower therefore signals rapid decline. Usually IC50 stands for the point on the concentration scale where inhibition reaches its midpoint. For orientation: kinetic solubility means solubility judged after dilution from a stock solution rather than from solid. On to `CCS(=O)(=O)c1ccc2oc(-c3ccc4ccccc4c3)nc2c1` [Ezutromid, ezutromid, reference compound], for which the results for the half-life at 1 μM in data set [1] (without ANF) and in data set [1] (setting [5]) were 60 ± 5 min and 89 ± 6 min, respectively. In addition, the microsomal CLint at 1 μM in data set [1] (without ANF) turned out to be 23.3 ± 2 µL/min/mg; in data set [1] (setting [6]), 15.8 ± 1.1 µL/min/mg. For the same compound, the midpoint of inhibition in data set [2], the IC50, lay at 0.27 µM. The “primary or secondary end points” value in the data set with utrophin (after 48 weeks of treatment) is recorded as “failed to meet”. Also, the levels of utrophin result in the data set on utrophin (repeated dosing, 24-week data) is listed as “increased”. Also, in the data set on utrophin (repeated dosing, 24-week data), the muscle fibre damage entry is reported as “statistically significant reduction”. In addition, in data set [3], the kinetic solubility at 24 h is < 1.56 µM and < 0.527 µg/mL.
`CCS(=O)(=O)c1ccc2oc(-c3ccc4c(c3)C3CC(C4)C3)nc2c1` [50c]: the half-life at 1 μM in data set [1] (without ANF) was determined as 48 ± 8 min; in data set [1] (setting [5]) it was 56 ± 10 min. The microsomal CLint at 1 μM in data set [1] (without ANF) is 29.9 ± 4.9 µL/min/mg; in data set [1] (setting [6]), 25.7 ± 4.6 µL/min/mg. Besides, the IC50 in data set [2] was found to be 13.1 ± 2 µM.
For the compound `CCS(=O)(=O)c1ccc2oc(-c3ccc4c(c3)CC3CC4C3)nc2c1` [50b], in data set [4] (50b at 10 µM, human liver microsomes, NADPH, 37°C, 60 min), the “Relative Abundance (UV Peak Area %Total)” value amounted to 66.02%. Moreover, in data set [4] (metabolic profiling of 50b), the predominant biotransformation result is given as “mono-oxygenation of the BCHep moiety”. In addition, the “half-life compared with ezutromid” value in data set [1] is “slight decrease”. The half-life at 1 μM was 40 ± 7 min in data set [1] (without ANF) and 42 ± 4 min in data set [1] (setting [5]). Further, the microsomal CLint at 1 μM in data set [1] (without ANF) turned out to be 35.6 ± 7 µL/min/mg; in data set [1] (setting [6]), 33.6 ± 2.7 µL/min/mg. This compound yielded an IC50 in data set [2] of 2.12 ± 0.3 µM. Also, in data set [3], the kinetic solubility at 24 h was < 1.56 µM and < 0.552 µg/mL.
Turning to `CCS(=O)(=O)c1ccc2oc(C34Cc5ccccc5C(C3)C4)nc2c1` [50a], in data set [1], the “increase in metabolic half-life compared with ezutromid” value was ~ 2 fold. Further, the half-life at 1 μM in data set [1] (without ANF) turned out to be 94 ± 0.2 min; in data set [1] (setting [5]) it was 108 ± 11 min. For the same compound, the microsomal CLint at 1 μM turned out to be 14.7 ± 0.1 µL/min/mg in data set [1] (without ANF) and 12.8 ± 1.4 µL/min/mg in data set [1] (setting [6]). For the same compound, the IC50 in data set [2] is 19 ± 18 µM. Also, in data set [3], the kinetic solubility at 24 h is < 1.56 µM and < 0.552 µg/mL.
